Paper PMC7496960, “Nonanal modulates oviposition preference in female Helicoverpa assulta (Lepidoptera: Noctuidae) via the activation of peripheral neurons” (Pest Management Science, 2020)

Tested on: T1, HassOR67/Orco (HassOR67/HassOrco; OR67)
T1 construct: full-length ORF from antennal cDNA in pT7Ts; cRNA co-injected with Orco cRNA into Xenopus laevis oocytes; with Odorant receptor coreceptor
Assay: two-electrode voltage clamp, Xenopus oocytes
Type: cell-based, Helicoverpa assulta
Conditions: co-expressed with Orco; agonist; holding potential −80 mV; 1 × 10^−7 to 1 × 10^−3 M

CCCCCCCCC=O [nonanal]
EC50: 8.49 µM
